Assay results from patent publication US20040209799A1, “JAK/STAT pathway inhibitors and the uses thereof” (priority 2000, published 2004).

Key:
[1] = tested on: stromelysin-1 (MMP3) mRNA; experiment: northern blot, IL-1β-induced mRNA in human articular chondrocytes: stromelysin-1; assay type: cell-based; conditions: 5 μM, 2 ng/ml rhIL-1β, 24 hours, free base or trifluoroacetic acid salt form
Description: (§1) Frozen human articular chondrocyte cell strain HC30-0198 (described in Example 1) was thawed, and cultured in monolayer in T150 tissue culture flasks (Corning Costar, Cambridge, Mass.) as described above to 1-5 days post-confluence. Test cultures were rinsed in PBS, and preincubated for 2 hours with 10 ml of serum-free DMEM containing 5 μM DBH (synthetic), in its free base or trifluoroacetic acid salt form. An additional 10 ml of serum-free DMEM containing 5 μM DBH, 4 ng/ml recombinant human interleukin-1β (rhIL-1β; final concentration of 2 ng/ml) (R&D Systems, Minneapolis, Minn.), and 2% antibiotic solution (final concentration of 1%), were then added for 24 hours.
(§2) Two control cultures were run in parallel: one without DBH (rhIL-1β alone), and another without DBH or rhIL-1β.
(§3) Total RNA was fixed to the membrane using a Stratalinker® 1800 UV Crosslinker (Stratagene, La Jolla, Calif.). […]
(§4) The blot was successively washed two times in 2×SSC/0.05% SDS (15 min/wash at room temperature), and two times in 0.1×SSC/0.1% SDS (30 minutes/wash at 65° C.). The blot was allowed to air dry, and the radioactive signal was visualized and quantified using a Fujifilm, BAS-1500 phosphorimager (Fuji, Stamford, Conn.). […]

[2] = tested on: collagenase 1 (MMP1) mRNA; experiment: northern blot, IL-1β-induced mRNA in human articular chondrocytes: collagenase 1; assay type: cell-based; conditions: 5 μM, 2 ng/ml rhIL-1β, 24 hours, free base or trifluoroacetic acid salt form
Description: as §1, §2, §3, §4

[3] = tested on: cyclooxygenase II (COX2) mRNA; experiment: northern blot, IL-1β-induced mRNA in human articular chondrocytes: COX2; assay type: cell-based; conditions: 5 μM, 2 ng/ml rhIL-1β, 24 hours, free base or trifluoroacetic acid salt form
Description: as §1, §2, §3, §4

NF-κB (p65) mRNA = experiment: northern blot, IL-1β-induced mRNA in human articular chondrocytes: NF-κB; assay type: cell-based; conditions: 5 μM, 2 ng/ml rhIL-1β, 24 hours, free base or trifluoroacetic acid salt form
Description: as §1, §2, §3, §4

[4] = tested on: tumor necrosis factor-α (TNF-α) mRNA; experiment: northern blot, IL-1β-induced mRNA in human articular chondrocytes: TNF-α; assay type: cell-based; conditions: 5 μM, 2 ng/ml rhIL-1β, 24 hours, free base or trifluoroacetic acid salt form
Description: as §1, §2, §3, §4

[5] = tested on: interleukin-6 (IL-6) mRNA; experiment: northern blot, IL-1β-induced mRNA in human articular chondrocytes: IL-6; assay type: cell-based; conditions: 5 μM, 2 ng/ml rhIL-1β, 24 hours, free base or trifluoroacetic acid salt form
Description: as §1, §2, §3, §4

[6] = tested on: chondrocytes in culture and explants of articular cartilage; conditions: cited from earlier work
[7] = tested on: rhIL-1β-induced mRNAs in human articular chondrocytes; experiment: northern blot, rhIL-1β-induced mRNAs, comparison of DBH forms (some mRNAs, not named); assay type: cell-based; conditions: 5 μM, for some mRNAs
Description: as §1, §2, §3, §4

[8] = tested on: IL-1α-induced aggrecanase activity in bovine chondrocytes; experiment: IL-1α-induced 35S-labeled proteoglycan release (aggrecanase activity) in bovine chondrocytes; assay type: cell-based; conditions: Bos taurus, Chondrocyte, 1 ng/ml rhIL-1α, primary bovine articular chondrocytes
Description: Primary bovine articular chondrocytes were isolated from the dissected articular cartilage of calf stifle joints using a thirty minute (37° C.) 1 mg/ml hyaluronidase (Boehringer Mannheim, Indianapolis, Ind.) treatment, followed by a thirty minute (37° C.) 2 mg/ml collagenase P (Boehringer Mannheim, Indianapolis, Ind.) and 2.5 mg/ml trypsin (GIBCO/BRL, Gaithersburg, Md.) treatment. Enzyme solutions were prepared in serum-free 1:1 Delbecco's modified essential medium/Ham's F-12 (DMEM/F12), and filter sterilized with a 0.22 μm Millex®-GV filter (Millipore S. A., Molsheim, France). A third, overnight digestion (0.5 mg/ml collagenase P at 37° C.) was performed in a Bellco stir flask.
Bovine chondrocytes were recovered by addition of an equal volume of DMEM/F12 supplemented with 10% fetal bovine serum (FBS) to neutralize enzymes, filtered through a 70 μm nylon Falcon® Cell Strainer (Beckton Dickinson, Franklin Lakes, N.J.), and centrifuged at 1000×g for 10 min at room temperature. […]
On day 28, the 0.5 ml media was removed and placed in a scintillation minivial. 4 ml of scintillation fluid was added and radioactivity in the media was quantified by scintillation counting. The cell layer was rinsed in PBS and harvested with 0.5 ml of 1× trypsin-EDTA, and quantified by scintillation counting as above. […]
Data were determined and expressed as follows: […]

SMILES | inhibition of IL-1β-induced upregulation of stromelysin (MMP3) mRNA [1] | inhibition of IL-1β-induced upregulation of collagenase 1 (MMP1) mRNA [2] | inhibition of IL-1β-induced upregulation of cyclooxygenase II (COX2) mRNA [3] | inhibition of IL-1β-induced upregulation of NF-κB (p65) mRNA (NF-κB (p65) mRNA) | inhibition of IL-1β-induced upregulation of tumor necrosis factor-α (TNF-α) mRNA [4] | inhibition of IL-1β-induced upregulation of interleukin-6 (IL-6) mRNA [5] | inhibition of IL-1 induced degradation of glycosaminoglycan and extracellular matrix [6] | inhibition of rhIL-1β-induced mRNAs, compared with the trifluoroacetic acid salt form [7] | inhibition at 5 µM [8] [%]
NC1=NC(=O)C(=C2CCNC(=O)c3[nH]ccc32)N1 [DBH, 4-(2-amino-4-oxo-2-imidazolin-5-ylidene)-4,5,6,7-tetrahydropyrrolo(2,3-c) azepine-8-one] | inhibit to various degrees | inhibit to various degrees | inhibit to various degrees | inhibit to various degrees | inhibit to various degrees | inhibit to various degrees | inhibit |  | 
NC1=NC(=O)C(=C2CCNC(=O)c3[nH]ccc32)N1 [DBH-2FB] |  |  |  |  |  |  |  | to a greater extent than the trifluoroacetic acid salt form of DBH | 100
